The values below come from publication PMC6379368, “Extracellular and intracellular small-molecule galectin-3 inhibitors” (Scientific Reports, 2019).

Series [1] addresses T1, galectin-3 (Homo sapiens, UniProt P17931). In words: GPN-induced galectin-3 accumulation (puncta) in JIMT-1 breast cancer cells. Type of series: cell-based. Also on record: In the intracellular assay, in contrast, only endogenous galectin was present; endogenous in cells; host or cells: JIMT-1 breast cancer cells. The procedure: The total number of galectin-3 puncta and nuclei in the microscopy images were quantified using the software ImageJ.
Cells were seeded in multi-well plates with sterile glass coverslips placed in each well and allowed to adhere to the cell culture surface for at least 24 hours. Then the cells were pre-treated with the different galectin-3 inhibitors at different concentrations (or DMSO as control) for 15 minutes or 24 hours followed by addition of the lysosomal damaging peptide GPN[42] and incubated another 13 minutes, with the inhibitors still present. The 13-minute incubation with GPN and 15-minute pre-incubation with inhibitors were done in DMEM/Ham’s F12 medium with 15 mM HEPES buffer (without serum), whereas the 24-hour incubation with inhibitors were performed in fully supplemented DMEM/Ham’s F12 medium (as described under Cell culture).
After treatment with GPN, the cells were fixed in 3.7% (v/v) formaldehyde in phosphate-buffered saline (PBS) for 15 minutes, permeabilized and blocked using 1% (v/v) TWEEN 20 and 5% (w/v) BSA in PBS for 30 minutes, then incubated with primary and secondary antibodies for one hour each (washed with PBS in between). Primary and secondary antibodies for galectin-3 staining were a rat anti-mouse galectin-3 IgG antibody[50],[51] […] All antibodies were diluted in 0.05% TWEEN 20 and 5% BSA in PBS. […] The coverslips were mounted on glass slides using Mowiol® 4–88 and left at 8 °C overnight before further examination. For imaging of the cells, a LSM-510 confocal laser scanning microscope (Carl Zeiss Microscopy GmbH, Oberkochen, Germany), equipped with a Hamamatsu R6357 photomultiplier (Hamamatsu Photonics K.K., Hamamatsu, Japan), was used. […] Maximum intensity projections of each picture obtained were analyzed with ImageJ 1.47 v (Rasband, W.S., ImageJ, U. S. National Institutes of Health, Bethesda, Maryland, USA) to quantify the number of galectin-3 dots and the number of nuclei in each picture. The quantification of particles (i.e. galectin-3 puncta/nucleus) was carried out using batch processing in the software, where a single macro (including parameters such as image thresholds, particle size and circularity) was used for all images obtained from a single experiment, this to reduce user bias and time consumption.

Series [2] in a line: Caco-2 permeability assay. Particulars: human, Caco-2, pH 7.4. In general terms: Caco-2 monolayers are a common model of the intestinal barrier.
For the next series, the system named is JIMT-1 cells. In words: MTT cell viability assay, JIMT-1. The class given is cell-based. As to conditions: JIMT-1, 72 hours, 0.04–40 µM for 1 and 2, 0.04–20 µM for 3. The protocol:
(§1) The MTT (3-[4,5-dimethylthiazol-2-yl]−2,5-diphenyltetrazolium bromide) assays were performed as previously described. […] The cells were incubated for 24 hours before addition of galectin-3 inhibitors. The inhibitors were diluted in PBS from their respective stock solution in DMSO (see Galectin-3 inhibitors) and used at final concentrations ranging from 0.04 to 40 μM. DMSO was adjusted to make the final DMSO concentration 0.2% for all inhibitor concentrations, including the control sample (no inhibitor). After 72 hours of treatment, 20 μl of 5 mg/ml MTT solution (in PBS) was added to each well and incubation continued for 1 hour at 37 °C. Thereafter, the MTT containing medium was removed and 100 μl of DMSO was added per well and the plates swirled gently for 10 minutes to dissolve the cells and the purple formazan product precipitate. Absorbance was monitored at 540 nm using a Labsystems iEMS Reader MF (Labsystems Oy, Helsinki, Finland) and the software DeltaSoft II v.4.14 (Biometallics Inc., Princeton, NJ, USA).

Another series deals with MCF-7 cells. In words: MTT cell viability assay, MCF-7. Type of series: cell-based. Particulars: MCF-7, 72 hours, 0.04–40 µM for 1 and 2, 0.04–20 µM for 3. The protocol: as §1
(In general: Tetrazolium assays rely on reduction of a dye to a coloured formazan, in cell work by metabolically active cells.)

Another series deals with HCC1937 cells. The series is described as follows: MTT cell viability assay, HCC1937. The class given is cell-based. Particulars: HCC1937, 72 hours, 0.04–40 µM for 1 and 2, 0.04–20 µM for 3. The procedure:
as §1

The subject of a further series is galectin-1. More on the design: method as in Delaine et al., Salameh et al., Peterson et al. As to conditions: lower compared to galectin-3; ref Delaine et al., Salameh et al., Peterson et al.; cited from earlier work.
The next series relates to obese mice. More on the design: method as in PMID 27814523. As to conditions: type 2 diabetes study; cited from earlier work.
Series [3] has as its target T1, galectin-3. In words: Fluorescence anisotropy (FA) competitive assay, affinity for galectin-3. The class given is binding. More on the design: made in house; host or cells: E. coli BL21 Star (DE3). From the text:
A FA assay was used to determine the affinity of recombinant human galectin-3 and the three inhibitors in solution. The use of the FA assay for this purpose has previously been described in detail by Sörme et al.[49]. In short, increasing concentrations of galectins were first titered against a fixed concentration of the fluorescent saccharide probe 3,3′-dideoxy-3-[4-(fluorescein-5-yl-carbonylaminomethyl)-1H-1,2,3-triazol-1-yl]−3′-[4-(3-fluorophenyl)-1H-1,2,3-triazol-1-yl]-1,1′-sulfanediyl-di-β-D-galactopyranoside (4 nM) (described in Peterson et al.[28]), to obtain binding curves in which the anisotropy value increases from a value for probe free in solution (A0) to a value where all probe molecules are bound to galectin-3 (Amax). Binding curves were constructed for each test condition used in this study (i.e. different buffer, temperature and pH, see below) (Fig. S4). To establish the dissociation constant (Kd) values between the inhibitors and galectin-3, a competitive variant of the FA assay was utilized. In this study, increasing concentrations of the inhibitors were titered against fixed concentrations of galectin-3 and probe. By measuring the anisotropy values for the different inhibitor concentrations, together with the values for Amax and A0, the Kd values could be calculated according to the equations presented in Sörme et al.[49].
The experiments were either performed in PBS (pH 7.2), in 50 mM phosphate buffer with 100 mM NaCl (pH 6, 7, or 8), or in 50 mM acetate buffer with 100 mM NaCl (pH 5). All buffers were supplemented with 0.1 µM BSA (to not lose any protein due to absorbance to plate surfaces). For the experiments performed in PBS (pH 7.2), a concentration of 20 nM galectin-3 was used (at room temperature and 4 °C). For the experiments done in phosphate/acetate buffer, galectin-3 was used at concentrations of 400 nM (pH 5), 100 nM (pH 6), or 50 nM (pH 7 and 8).
The emitted light from the fluorescent saccharide probes was measured using a PheraStarFS plate reader and PHERAstar Mars version 2.10 R3 software (BMG, Offenburg, Germany). […] The anisotropy values for each data point were read in duplicate wells of 96-well plates (at a total volume of 140 µl) 30 minutes after the addition of all solutions (for equilibrium to arise).

Series [4] concerns the target T1, galectin-3. The series is described as follows: Inhibition of fluorescein-tagged galectin-3 binding to the cell surface of CHO cells (flow cytometry). Particulars: 0.5 µM fluorescein-tagged galectin-3, 4 °C, 1 hour. More on the design: made in house; host or cells: E. coli BL21 Star (DE3). The class given is cell-based.

Where “and” joins values, the source holds several entries; their conditions need not be identical. Identical values can stand only once. Like-named read-outs stand apart in the source and are kept apart here. Where a SMILES comes first, the peptide text is derived from it. The star is where a group is joined. βNA = c1ccc2cc(N*)ccc2c1

T1 sequence (P17931 whole entry): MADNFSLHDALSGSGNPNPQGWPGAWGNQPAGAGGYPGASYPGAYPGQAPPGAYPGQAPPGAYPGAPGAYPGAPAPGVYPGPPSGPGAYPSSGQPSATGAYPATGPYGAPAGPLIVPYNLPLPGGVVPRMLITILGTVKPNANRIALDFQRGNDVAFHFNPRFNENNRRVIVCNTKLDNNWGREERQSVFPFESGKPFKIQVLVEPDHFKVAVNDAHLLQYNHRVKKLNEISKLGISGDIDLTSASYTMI

Consider `NCC(=O)N[C@@H](Cc1ccccc1)C(=O)Nc1ccc2ccccc2c1` [GPN, glycyl-L-phenylalanine 2-naphthylamide, reference compound] (H-Gly-Phe-βNA), for which, at galectin-3 [1] (JIMT-1 cells, 0.3 mM GPN for 13 minutes, n = 92), the “mean number of galectin-3 puncta/nucleus” value is reported as 4.81 ± 0.23.
The term Papp A→B denotes how fast a substance crosses the layer from the apical side. As a reminder, the Papp B→A is the apparent permeability from the basolateral to the apical side of a cell layer. In series [2], `OC[C@H]1O[C@H](Sc2ccc(Cl)c(Cl)c2)[C@H](O)[C@@H](n2cc(-c3cc(F)c(F)c(F)c3)nn2)[C@H]1O` [compound 2] returned a Papp A→B of 147 nm/s and a Papp B→A of 162 nm/s.
In general, Kd refers to a measure of binding affinity in units of concentration. The IC50 is the concentration that gives 50% inhibition. `CCCCNC(=O)c1cn(C2C(O)C(CO)OC(SC3OC(CO)C(O)C(n4cc(C(=O)NCCCC)nn4)C3O)C2O)nn1` (stereo not shown) [compound 3]: the “cell viability (MTT)” value in the series with JIMT-1 cells, in the series with MCF-7 cells and in the series on HCC1937 cells was “no apparent change in cell viability” in each case. Further, the “affinity for galectin-1” value with galectin-1 is recorded as “high affinity”. Further, the glucose tolerance entry in the series with obese mice is given as “improved glucose tolerance”. Further, in the series with obese mice, the insulin resistance entry is listed as “decreased insulin resistance”. Also, the Papp A→B in series [2] is < 3 nm/s. The Papp B→A in series [2] was < 0.7 nm/s. Besides, the Kd is 0.0358 µM at galectin-3 [3] (as in Fig. 1b, restated in legend of Fig. S1, read-out: Kd value for galectin-3); 0.036 µM and 0.0358 µM at galectin-3 [3] (galectin-3 CRD, FA assay, PBS pH 7.2, room temperature, read-out: Kd value for galectin-3); 0.778 µM on galectin-3 [3] (pH 5, acetate buffer with NaCl, read-out: Kd value for galectin-3 at pH 5). Further, the “fold lower affinity for galectin-3 compared to 1” value at galectin-3 [3] (ratio of Kd values) is > 10 fold. Besides, the IC50 on galectin-3 [4] is 10 µM; on galectin-3 [1] (JIMT-1 cells, 15 minutes pre-incubation, read-out: IC50, inhibition of GPN-induced galectin-3 accumulation) it was ~10 µM. Also, the “inhibition of galectin-3 accumulation (extent)” value at galectin-3 [1] (15 minutes pre-treatment, high concentrations 50–100 µM) is “complete inhibition of galectin-3 accumulation could not be reached”; on galectin-3 [1] (24 hours pre-treatment, up to 10 µM) it was “poor inhibitor of galectin-3 accumulation”.
